From US12398097B2, “WDR5-MYC inhibitors” (Vanderbilt University, priority 2019, dated 2025)

Molecular target: WDR5 (Homo sapiens, UniProt P61964)
Test: Competition-based fluorescence polarization anisotropy assay
Conditions: binding to WDR5; displacement of FITC-labeled small molecule probe (analogous to Example J2 or HCH-25) or peptide probe FITC-AHx-SEEEIDVVSV; pH 6.0; Ki converted from IC50
Procedure, shortened: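 Ki values derive from displacement of either a fluorescent small-molecule probe or a FITC-peptide probe from WDR5, monitored by fluorescence polarization. Assay run at pH 6.0 in 200 mM phosphate with 300 mM NaCl, 0.5 mM TCEP and 0.1% Chaps.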

Work on `Cc1ccsc1-c1cc(NS(=O)(=O)c2cc(Br)ccc2O)c(O)c(C(=O)O)c1` [Example J197, 3-((5-Bromo-2-hydroxyphenyl)sulfonamido)-2-hydroxy-5-(3-methylthiophen-2-yl)benzoic acid] yielded a Ki of 1930 nM.

`Cc1sccc1-c1cc(NS(=O)(=O)c2cc(Br)ccc2O)c(O)c(C(=O)O)c1` [Example J198, 3-((5-Bromo-2-hydroxyphenyl)sulfonamido)-2-hydroxy-5-(2-methylthiophen-3-yl)benzoic acid] gave a Ki of 1100 nM.

With `O=C(O)c1c(O)c(NS(=O)(=O)c2cc(Br)ccc2O)cc(-c2ccsc2)c1F` [Example J199, 3-((5-Bromo-2-hydroxyphenyl)sulfonamido)-6-fluoro-2-hydroxy-5-(thiophen-3-yl)benzoic acid] the Ki was 640 nM.

In the case of `COc1ccc(Br)cc1S(=O)(=O)Nc1cc(Cl)cc(NC(C)=O)c1O` [Example J200, N-(3-((5-Bromo-2-methoxyphenyl)sulfonamido)-5-chloro-2-hydroxyphenyl)acetamide], the Ki is reported as 68800 nM.

`CC(C)(C)c1cc(NS(=O)(=O)c2cc(Br)ccc2O)c(O)c(C(=O)O)c1` [Example J201, 3-((5-Bromo-2-hydroxyphenyl)sulfonamido)-5-(tert-butyl)-2-hydroxybenzoic acid] was tested, and the Ki was 700 nM.

Compound `CNC(=O)c1cc(C(C)(C)C)cc(NS(=O)(=O)c2cc(Br)ccc2O)c1O` [Example J202, 3-((5-Bromo-2-hydroxyphenyl)sulfonamido)-5-(tert-butyl)-2-hydroxy-N-methylbenzamide] has a Ki of 1080 nM.

With `N#CC1(c2cc(NS(=O)(=O)c3cc(Br)ccc3O)c(O)c(C(=O)O)c2)CCC1` [Example J203, 3-((5-Bromo-2-hydroxyphenyl)sulfonamido)-5-(1-cyanocyclobutyl)-2-hydroxybenzoic acid] the Ki was 40 nM.

Work on `COc1ccc(Br)cc1S(=O)(=O)Nc1cc(C2(C#N)CCC2)cc(C(=O)O)c1O` [Example J205, 3-((5-Bromo-2-methoxyphenyl)sulfonamido)-5-(1-cyanocyclobutyl)-2-hydroxybenzoic acid] yielded a Ki of 50 nM.

`N#CC1(c2cc(NS(=O)(=O)c3cc(Br)cc(Cl)c3O)c(O)c(C(=O)O)c2)CCC1` [Example J206, 3-((S-Bromo-3-chloro-2-hydroxyphenyl)sulfonamido)-5-(1-cyanocyclobutyl)-2-hydroxybenzoic acid] showed a Ki of 20 nM.

Compound `COc1cc(Cl)c(Br)cc1S(=O)(=O)Nc1cc(C2(C#N)CCC2)cc(C(=O)O)c1O` [Example J207, 3-((5-Bromo-4-chloro-2-methoxyphenyl)sulfonamido)-5-(1-cyanocyclobutyl)-2-hydroxybenzoic acid] has a Ki of 220 nM.

Compound `CNC(=O)c1cc(C2(C#N)CCC2)cc(NS(=O)(=O)c2cc(Br)ccc2O)c1O` [Example J208, 3-((5-Bromo-2-hydroxyphenyl)sulfonamido)-5-(1-cyanocyclobutyl)-2-hydroxy-N-methylbenzamide] has a Ki of 390 nM.

Compound `CNC(=O)c1cc(C2(C#N)CCC2)cc(NS(=O)(=O)c2cc(Br)ccc2OC)c1O` [Example J210, 3-((5-Bromo-2-methoxyphenyl)sulfonamido)-5-(1-cyanocyclobutyl)-2-hydroxy-N-methylbenzamide] has a Ki of 390 nM.

`CNC(=O)c1cc(C2(C#N)CCC2)cc(NS(=O)(=O)c2cc(Br)cc(Cl)c2O)c1O` [Example J211, 3-((5-Bromo-3-chloro-2-hydroxyphenyl)sulfonamido)-5-(1-cyanocyclobutyl)-2-hydroxy-N-methylbenzamide] was tested, and the Ki was 50 nM.

`CNC(=O)c1cc(C2(C#N)CCC2)cc(NS(=O)(=O)c2cc(Br)cc(C)c2O)c1O` [Example J212, 3-((5-Bromo-2-hydroxy-3-methylphenyl)sulfonamido)-5-(1-cyanocyclobutyl)-2-hydroxy-N-methylbenzamide] showed a Ki of 260 nM.

Work on `CCc1cc(Br)cc(S(=O)(=O)Nc2cc(C3(C#N)CCC3)cc(C(=O)NC)c2O)c1O` [Example J213, 3-((5-Bromo-3-ethyl-2-hydroxyphenyl)sulfonamido)-5-(1-cyanocyclobutyl)-2-hydroxy-N-methylbenzamide] yielded a Ki of 12200 nM.

`CNC(=O)c1cc(C2(C#N)CCC2)cc(NS(=O)(=O)c2cc(Br)cc(OC(F)(F)F)c2O)c1O` [Example J214, 3-((5-Bromo-2-hydroxy-3-(trifluoromethoxy)phenyl)sulfonamido)-5-(1-cyanocyclobutyl)-2-hydroxy-N-methylbenzamide] was tested, and the Ki was 390 nM.

`CNC(=O)c1cc(C2(C#N)CCC2)cc(NS(=O)(=O)c2cc(Cl)cc(Cl)c2O)c1O` [Example J216, 5-(1-Cyanocyclobutyl)-3-((3,5-dichloro-2-hydroxyphenyl)sulfonamido)-2-hydroxy-N-methylbenzamide] showed a Ki of 170 nM.

With `CNC(=O)c1cc(C2(C#N)CCC2)cc(NS(=O)(=O)c2cc(Br)cc3cccnc23)c1O` [Example J217, 3-((6-Bromoquinoline)-8-sulfonamido)-5-(1-cyanocyclobutyl)-2-hydroxy-N-methylbenzamide] the Ki was 420 nM.

`N#CC1(c2cc(NS(=O)(=O)c3cc(Br)ccc3O)c(O)c(C(N)=O)c2)CCC1` [Example J218, 3-((5-Bromo-2-hydroxyphenyl)sulfonamido)-5-(1-cyanocyclobutyl)-2-hydroxybenzamide] showed a Ki of 1500 nM.

Work on `COCCNC(=O)c1cc(C2(C#N)CCC2)cc(NS(=O)(=O)c2cc(Br)ccc2O)c1O` [Example J219, 3-((5-Bromo-2-hydroxyphenyl)sulfonamido)-5-(1-cyanocyclobutyl)-2-hydroxy-N-(2-methoxyethyl)benzamide] yielded a Ki of 440 nM.

With `N#CC1(c2cc(NS(=O)(=O)c3cc(Br)ccc3O)c(O)c(C(=O)NCC3CCCO3)c2)CCC1` (centres unmarked) [Example J220, 3-((5-Bromo-2-hydroxyphenyl)sulfonamido)-5-(1-cyanocyclobutyl)-2-hydroxy-N-((tetrahydrofuran-2-yl)methyl)benzamide] the Ki was 1030 nM.

`COC1CCN(C(=O)c2cc(C3(C#N)CCC3)cc(NS(=O)(=O)c3cc(Br)ccc3O)c2O)C1` (centres unmarked) [Example J221, 5-Bromo-N-(5-(1-cyanocyclobutyl)-2-hydroxy-3-(3-methoxypyrrolidine-1-carbonyl)phenyl)-2-hydroxybenzenesulfonamide] showed a Ki of 27800 nM.

`N#CC1(c2cc(NS(=O)(=O)c3cc(Br)ccc3O)c(O)c(C(=O)NCc3cc[nH]c(=O)c3)c2)CCC1` [Example J222, 3-((5-Bromo-2-hydroxyphenyl)sulfonamido)-5-(1-cyanocyclobutyl)-2-hydroxy-N-((2-oxo-1,2-dihydropyridin-4-yl)methyl)benzamide] was tested, and the Ki was 410 nM.

`COC1CN(C(=O)c2cc(C3(C#N)CCC3)cc(NS(=O)(=O)c3cc(Br)ccc3O)c2O)C1` [Example J223, 5-Bromo-N-(5-(1-cyanocyclobutyl)-2-hydroxy-3-(3-methoxyazetidine-1-carbonyl)phenyl)-2-hydroxybenzenesulfonamide] gave a Ki of 430 nM.

`N#CC1(c2cc(NS(=O)(=O)c3cc(Br)ccc3O)c(O)c(C(=O)N3CC(O)C3)c2)CCC1` [Example J224, 5-Bromo-N-(5-(1-cyanocyclobutyl)-2-hydroxy-3-(3-hydroxyazetidine-1-carbonyl)phenyl)-2-hydroxybenzenesulfonamide] was tested, and the Ki was 290 nM.

Work on `N#CC1(c2cc(NS(=O)(=O)c3cc(Br)ccc3O)c(O)c(C(=O)NCCN3CCOCC3)c2)CCC1` [Example J225, 3-((5-Bromo-2-hydroxyphenyl)sulfonamido)-5-(1-cyanocyclobutyl)-2-hydroxy-N-(2-morpholinoethyl)benzamide] yielded a Ki of 860 nM.

`CN(C)CCNC(=O)c1cc(C2(C#N)CCC2)cc(NS(=O)(=O)c2cc(Br)ccc2O)c1O` [Example J226, 3-((5-Bromo-2-hydroxyphenyl)sulfonamido)-5-(1-cyanocyclobutyl)-N-(2-(dimethylamino)ethyl)-2-hydroxybenzamide] showed a Ki of 1090 nM.

`N#CC1(c2cc(NS(=O)(=O)c3cc(Br)ccc3O)c(O)c(C(=O)Nc3nc[nH]n3)c2)CCC1` [Example J227, 3-((5-Bromo-2-hydroxyphenyl)sulfonamido)-5-(1-cyanocyclobutyl)-2-hydroxy-N-(1H-1,2,4-triazol-3-yl)benzamide] gave a Ki of 50 nM.

With `N#CC1(c2cc(NS(=O)(=O)c3cc(Br)ccc3O)c(O)c(C(=O)NCCO)c2)CCC1` [Example J228, 3-((5-Bromo-2-hydroxyphenyl)sulfonamido)-5-(1-cyanocyclobutyl)-2-hydroxy-N-(2-hydroxyethyl)benzamide] the Ki was 370 nM.

`N#CC1(c2cc(NS(=O)(=O)c3cc(Br)ccc3O)c(O)c(C(=O)NCC3CCCCO3)c2)CCC1` (centres unmarked) [Example J229, 3-((5-Bromo-2-hydroxyphenyl)sulfonamido)-5-(1-cyanocyclobutyl)-2-hydroxy-N-((tetrahydro-2H-pyran-2-yl)methyl)benzamide] gave a Ki of 850 nM.

`N#CC1(c2cc(NS(=O)(=O)c3cc(Br)ccc3O)c(O)c(C(=O)NCc3ccc(=O)[nH]c3)c2)CCC1` [Example J230, 3-((5-Bromo-2-hydroxyphenyl)sulfonamido)-5-(1-cyanocyclobutyl)-2-hydroxy-N-((6-oxo-1,6-dihydropyridin-3-yl)methyl)benzamide] was tested, and the Ki was 630 nM.

For `N#CC1(c2cc(NS(=O)(=O)c3cc(Br)ccc3O)c(O)c(C(=O)O)c2)CCCCC1` [Example J231, 3-((5-Bromo-2-hydroxyphenyl)sulfonamido)-5-(1-cyanocyclohexyl)-2-hydroxybenzoic acid], the Ki was 20 nM.

Work on `N#CC1(c2cc(NS(=O)(=O)c3cc(Br)ccc3O)c(O)c(C(N)=O)c2)CCCCC1` [Example J232, 3-((5-Bromo-2-hydroxyphenyl)sulfonamido)-5-(l-cyanocyclohexyl)-2-hydroxybenzamide] yielded a Ki of 220 nM.

In the case of `CNC(=O)c1cc(C2(C#N)CCCCC2)cc(NS(=O)(=O)c2cc(Br)ccc2O)c1O` [Example J233, 3-((5-Bromo-2-hydroxyphenyl)sulfonamido)-5-(1-cyanocyclohexyl)-2-hydroxy-N-methylbenzamide], the Ki is reported as 100 nM.

`N#CC1(c2cc(NS(=O)(=O)c3cc(Br)cc(Cl)c3O)c(O)c(C(=O)O)c2)CCCCC1` [Example J234, 3-((5-Bromo-3-chloro-2-hydroxyphenyl)sulfonamido)-5-(1-cyanocyclohexyl)-2-hydroxybenzoic acid] gave a Ki of 20 nM.
